Measurements published in patent US9624199B2, “Substituted bipiperidinyl derivatives” (Bayer Pharma Aktiengesellschaft, priority 2013, dated 2017).
Counter-ions that a name gives are not always drawn.

Experiments:
[1] = target: recombinant human α2C receptor CHO cell line (Homo sapiens (Human), UniProt P18825); assay: Antagonism against adrenoreceptor α2C (luminescence, noradrenaline-stimulated recombinant CHO cells); format: cell-based; details: 20 nM noradrenaline, tested up to 10 μM
Protocol: B-1a) Antagonism Against Adrenoreceptors
Antagonism against the adrenoreceptor α1A was tested using a recombinant human α1A receptor CHO cell line which additionally also recombinantly expresses mtAeq (mitochondrial aequorin). Antagonism against the adrenoreceptor α2A was tested using a recombinant human α2A-Gα16 receptor fusion protein CHO cell line (PerkinElmer Life Sciences) which additionally also recombinantly expresses mtAeq. Antagonism against the adrenoreceptor α2B was tested using a recombinant human α2B receptor CHO cell line (PerkinElmer Life Sciences) which additionally also recombinantly expresses mtAeq. Antagonism against the adrenoreceptor α2C was tested using a recombinant human α2C receptor CHO cell line which additionally also recombinantly expresses a chimeric G protein (Gαqi3) and mtOb (mitochondrial obelin).
The cells were cultivated at 37° C. and 5% CO2 in Dulbecco's modified Eagle's Medium/NUT mix F12 with L-glutamine which additionally contained 10% (v/v) inactivated foetal calf serum, 1 mM sodium pyruvate, 0.9 mM sodium bicarbonate, 50 U/ml penicillin, 50 μg/ml streptomycin, 2.5 μg/ml amphotericin B and 1 mg/ml Geneticin. The cells were passaged with enzyme-free Hank's-based cell dissociation buffer. All cell culture reagents used were from Invitrogen (Carlsbad, USA).
Luminescence measurements were carried out on white 384-well microtitre plates. 2000 cells/well were plated in a volume of 25 μl and cultivated for one day at 30° C. and 5% CO2 in cell culture medium with coelenterazine (α2A and α2B: 5 μg/ml; α1a/c and α2C: 2.5 μg/ml). Serial dilutions of the test substances (10 μl) were added to the cells. After 5 minutes, noradrenaline was added to the cells (35 μl; final concentrations: 20 nM (α1a/c and α2C) or 200 nM (α2A and α2B)), and the emitted light was measured for 50 seconds using a CCD (charge-coupled device) camera (Hamamatsu Corporation, Shizuoka, Japan) in a light-tight box. The test substances were tested up to a maximum concentration of 10 μM. The IC50 values were calculated from the appropriate dose-response curves.

[2] = system: diabetic (ZDFfa/fa) and healthy rats (Wistar); assay: Assay of perfusion-enhancing substances (microcirculation), laser doppler probe at the paw; format: in vivo, rat; details: single oral dose; for factor by which microcirculation is improved at MED compared to placebo: at the MED, 30 min after administration; for MED skin temperature: minimum effective dose for significant increase of skin temperature (ttest); for MED microcirculation: minimum effective dose with significantly improved microcirculation vs placebo, measured 30 min after administration
Text: B-2e) Assay of Perfusion-Enhancing Substances (Microcirculation)
In diabetic (ZDFfa/fa) and healthy rats (Wistar), a laser doppler probe was fastened under anaesthesia conditions (isoflurane anaesthesia) at the sole of the paw for measuring cutaneous microcirculation. The test animals were once treated orally with the test substances. During the experiment, microperfusion and temperature of the lower extremities were documented continuously. Here, a temperature-sensitive laser doppler probe (Periflux, 02C) was fastened with adhesive to the paws of the animals, allowing the measurement of microperfusion and skin temperature. The microcirculation measurement values were measured on both paws 30 min after oral administration of the test substance. […] Also stated is the MED for the significant increase of skin temperature (ttest).
Microcirculation data for adrenoreceptor α2C receptor antagonist of the compound of Example 11 and for comparative substance ORM12741, an AR α2C receptor antagonist from Orion, are shown in Table 2: […]

recombinant human α2C receptor CHO cell line, sequence (P18825 whole entry): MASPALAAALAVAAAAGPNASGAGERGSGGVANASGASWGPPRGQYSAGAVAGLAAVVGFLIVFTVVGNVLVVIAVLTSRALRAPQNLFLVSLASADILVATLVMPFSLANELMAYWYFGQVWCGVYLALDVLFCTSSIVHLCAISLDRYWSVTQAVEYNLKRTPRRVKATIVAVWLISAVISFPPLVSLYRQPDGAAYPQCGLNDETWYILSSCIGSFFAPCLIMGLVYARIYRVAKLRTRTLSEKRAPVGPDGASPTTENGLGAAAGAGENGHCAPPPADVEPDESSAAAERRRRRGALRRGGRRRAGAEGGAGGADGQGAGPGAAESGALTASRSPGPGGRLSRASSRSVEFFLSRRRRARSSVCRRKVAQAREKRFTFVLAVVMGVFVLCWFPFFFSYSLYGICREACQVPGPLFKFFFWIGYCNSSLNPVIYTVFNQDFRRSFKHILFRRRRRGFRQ

Compound	IC50 [1]	also measured
C[C@@H]1CCCN(C2CCN(C(=O)c3ccc(N4CCOCC4)nc3)CC2)C1 [Example 1, [(3R)-3-Methyl-1,4′-bipiperidin-1′-yl][6-(morpholin-4-yl)pyridin-3-yl]methanone formic acid salt]		IC50 ([1]; formic acid salt): 28 nM
C[C@@H]1CCCN(C2CCN(C(=O)c3ccc(N4CCOCC4)nc3)CC2)C1 [Example 2, [(3R)-3-Methyl-1,4′-bipiperidin-1′-yl][6-(morpholin-4-yl)pyridin-3-yl]methanone]	50 nM	
COC[C@H]1CCCN1c1ccc(C(=O)N2CCC(N3CCC[C@@H](C)C3)CC2)cn1 [Example 3, {6-[(2R)-2-(Methoxymethyl)pyrrolidin-1-yl]pyridin-3-yl}[(3R)-3-methyl-1,4′-bipiperidin-1′-yl]methanone formic acid salt]	11 nM	
COCCNc1ccc(C(=O)N2CCC(N3CCC[C@@H](C)C3)CC2)cn1 [Example 4, {6-[(2-Methoxyethyl)amino]pyridin-3-yl}[(3R)-3-methyl-1,4′-bipiperidin-1′-yl]methanone]	36 nM	
C[C@@H]1CCCN(C2CCN(C(=O)c3ccc(N4CCC(F)(F)CC4)nc3)CC2)C1 [Example 5, [6-(4,4-Difluoropiperidin-1-yl)pyridin-3-yl][(3R)-3-methyl-1,4′-bipiperidin-1′-yl]methanone]	18 nM	
COCCN(C)c1ccc(C(=O)N2CCC(N3CCC[C@@H](C)C3)CC2)cn1 [Example 6, {6-[(2-Methoxyethyl)(methyl)amino]pyridin-3-yl}[(3R)-3-methyl-1,4′-bipiperidin-1′-yl]methanone hydrochloride]	33 nM	
O=C(c1ccc(N2CCOCC2)nc1)N1CCC(N2CCCC(OCC3CC3)C2)CC1 (stereo not drawn) [Example 7, [3-(Cyclopropylmethoxy)-1,4′-bipiperidin-1′-yl][6-(morpholin-4-yl)pyridin-3-yl]methanone]	13 nM	
C[C@@H]1CCCN(C2CCN(C(=O)c3ccc(N(C)Cc4c(F)cccc4F)nc3)CC2)C1 [Example 8, {6-[(2,6-Difluorobenzyl)(methyl)amino]pyridin-3-yl}[(3R)-3-methyl-1,4′-bipiperidin-1′-yl]methanone]	4.5 nM	
C[C@@H]1CCCN(C2CCN(C(=O)c3ccc(N4CCS(=O)(=O)CC4)nc3)CC2)C1 [Example 9, [6-(1,1-Dioxidothiomorpholin-4-yl)pyridin-3-yl][(3R)-3-methyl-1,4′-bipiperidin-1′-yl]methanone]	27 nM	
CC[C@@H](CO)Nc1ccc(C(=O)N2CCC(N3CCC[C@@H](C)C3)CC2)cn1 [Example 10, (6-{[(2 S)-1-Hydroxybutan-2-yl]amino}pyridin-3-yl)[(3R)-3-methyl-1,4′-bipiperidin-1′-yl]methanone]	18 nM	
CCC(CO)Nc1ccc(C(=O)N2CCC(N3CCC[C@@H](C)C3)CC2)cn1 (stereo partly drawn) [Example 11, {6[(1-Hydroxybutan-2-yl)amino]pyridin-3-yl}[(3R)-3-methyl-1,4′-bipiperidin-1′-yl]methanone]	62 nM	factor by which microcirculation is improved at MED compared to placebo [2]: 2.4 ×; MED skin temperature [2]: 1 mg/kg; MED microcirculation [2]: 1 mg/kg
CCC(COC(N)=O)Nc1ccc(C(=O)N2CCC(N3CCC[C@@H](C)C3)CC2)cn1 (stereo partly drawn) [Example 12, 2-[(5-{[(3R)-3-Methyl-1,4′-bipiperidin-1′-yl]carbonyl}pyridin-2-yl)amino]butyl carbamate]	21 nM	
COC1CCN(c2ccc(C(=O)N3CCC(N4CCC[C@@H](C)C4)CC3)cn2)C1 (stereo partly drawn) [Example 13, [6-(3-Methoxypyrrolidin-1-yl)pyridin-3-yl][(3R)-3-methyl-1,4′-bipiperidin-1′-yl]methanone]	12 nM	
CCC(COC)Nc1ccc(C(=O)N2CCC(N3CCC[C@@H](C)C3)CC2)cn1 (stereo partly drawn) [Example 14, {6-[(1-Methoxybutan-2-yl)amino]pyridin-3-yl}[(3R)-3-methyl-1,4′-bipiperidin-1′-yl]methanone]	16 nM	
CC1CCCN(c2ccc(C(=O)N3CCC(N4CCC[C@@H](C)C4)CC3)cn2)C1 (stereo partly drawn) [Example 15, [(3R)-3-Methyl-1,4′-bipiperidin-1′-yl][6-(3-methylpiperidin-1-yl)pyridin-3-yl]methanone]	27 nM	
C[C@@H]1CCCN(C2CCN(C(=O)c3cnc(N4CCOCC4)nc3)CC2)C1 [Example 16, [(3R)-3-Methyl-1,4′-bipiperidin-1′-yl][2-(morpholin-4-yl)pyrimidin-5-yl]methanone]	54 nM	
O=C(c1cnc(N2CCOCC2)nc1)N1CCC(N2CCCC(OCC3CC3)C2)CC1 (stereo not drawn) [Example 17, [3-(Cyclopropylmethoxy)-1,4′-bipiperidin-1′-yl][2-(morpholin-4-yl)pyrimidin-5-yl]methanone]	14 nM	
C[C@@H]1CCCN(C2CCN(C(=O)c3cnc(N4CC5(COC5)C4)nc3)CC2)C1 [Example 18, [(3R)-3-Methyl-1,4′-bipiperidin-1′-yl][2-(2-oxa-6-azaspiro[3.3]hept-6-yl)pyrimidin-5-yl]methanone]	24 nM	
C[C@@H]1CCCN(C2CCN(C(=O)c3cnc(N4CCC(F)(F)CC4)nc3)CC2)C1 [Example 19, [2-(4,4-Difluoropiperidin-1-yl)pyrimidin-5-yl][(3R)-3-methyl-1,4′-bipiperidin-1′-yl]methanone]	19 nM	
COC[C@H]1CCCN1c1ncc(C(=O)N2CCC(N3CCC[C@@H](C)C3)CC2)cn1 [Example 20, {2-[(2R)-2-(Methoxymethyl)pyrrolidin-1-yl]pyrimidin-5-yl}[(3R)-3-methyl-1,4′-bipiperidin-1′-yl]methanone]	41 nM	
C[C@@H]1CCCN(C2CCN(C(=O)c3cnc(N4CCS(=O)(=O)CC4)cn3)CC2)C1 [Example 21, [5-(1,1-Dioxidothiomorpholin-4-yl)pyrazin-2-yl][(3R)-3-methyl-1,4′-bipiperidin-1′-yl]methanone]	71 nM	
COC[C@@]1(C)CCCN2CCc3c(oc4ccccc34)[C@@H]21 [ORM-12741, reference compound]		factor by which microcirculation is improved at MED compared to placebo [2]: 1.9 ×; MED skin temperature [2]: 0.01 mg/kg; MED microcirculation [2]: 0.1 mg/kg
